This note sets out measurements from patent US20120220581A1, “IMIDAZO[1,2-b]PYRIDAZINE DERIVATIVES AND THEIR USE AS PDE10 INHIBITORS” (Janssen-Cilag, S.A., priority 2009, published 2012).

Read-outs that look alike come from different tables or passages of the source.

For test [1], the system named is apomorphine-induced stereotypy in rats. As to the kind of experiment: Apomorphine-induced stereotypy in rats (APO). Particulars: Rattus norvegicus. Type of test: in vivo. The protocol: Apomorphine (1.0 mg/kg, i.v.)-induced stereotypy (compulsive sniffing, licking, chewing) was scored every 5 min over the first hour after injection of apomorphine, following a 1 hour interval pre-treatment with the test compound. The score system was: (3) pronounced, (2) moderate, (1) slight, and (0) absent.

For test [2], the target named is other members of the PDE family (Homo sapiens, UniProt O00408). Briefly: In vitro PDE selectivity assay (SPA), other members of the PDE family (protocols in Table A). The format is biochemical. Particulars: hPDE2A; read-out: PDE 2A (expressed as pIC50) (converted). As to the method:
(§1) Rat recombinant PDE10A (rPDE10A2) was expressed in Sf9 cells using a recombinant rPDE10A baculovirus construct. Cells were harvested after 48 h of infection and the rPDE10A protein was purified by metal chelate chromatography on Ni-sepharose 6FF. Tested compounds were dissolved and diluted in 100% DMSO to a concentration 100 fold of the final concentration in the assay. Compound dilutions (0.4 μl) were added in 384 well plates to 20 μl of incubation buffer (50 mM Tris pH 7.8, 8.3 mM MgCl2, 1.7 mM EGTA). 10 μl of rPDE10A enzyme in incubation buffer was added and the reaction was started by addition of 10 μl substrate to a final concentration of 60 nM cAMP and 0.008 μCi ^3H-cAMP. The reaction was incubated for 60 minutes at room temperature. After incubation, the reaction was stopped with 20 μl of stop solution consisting of 17.8 mg/ml PDE SPA (scintillation proximity assay) beads. After sedimentation of the beads during 30 minutes the radioactivity was measured in a Perkin Elmer Topcount scintillation counter and results were expressed as cpm. For blanc values the enzyme was omitted from the reaction and replaced by incubation buffer. Control values were obtained by addition of a final concentration of 1% DMSO instead of compound. The same assay principle is applied for the measurement of the affinity of the compound for other members of the PDE family with appropriate modifications in incubation buffer, substrate concentration, incubation time and stop solution. An overview of the different protocols is presented in table A. A best fit curve is fitted by a minimum sum of squares method to the plot of % of control value substracted with blanc value versus compound concentration and the half maximal inhibitory concentration (IC50) value is derived from this curve.
(§2) The compounds of the invention are generally selective for PDE10 compared to other PDEs and there are a few that also have affinity for PDE1B1, 4D3 and 5A3.

The target in a further test is T1, PDE10 (Rattus norvegicus, UniProt Q9QYJ6).
T1 construct: from tissue; host or cells: rat brain sections, striatum (in vivo dosing, ex vivo autoradiography)
T1 sequence (Q9QYJ6 1-794): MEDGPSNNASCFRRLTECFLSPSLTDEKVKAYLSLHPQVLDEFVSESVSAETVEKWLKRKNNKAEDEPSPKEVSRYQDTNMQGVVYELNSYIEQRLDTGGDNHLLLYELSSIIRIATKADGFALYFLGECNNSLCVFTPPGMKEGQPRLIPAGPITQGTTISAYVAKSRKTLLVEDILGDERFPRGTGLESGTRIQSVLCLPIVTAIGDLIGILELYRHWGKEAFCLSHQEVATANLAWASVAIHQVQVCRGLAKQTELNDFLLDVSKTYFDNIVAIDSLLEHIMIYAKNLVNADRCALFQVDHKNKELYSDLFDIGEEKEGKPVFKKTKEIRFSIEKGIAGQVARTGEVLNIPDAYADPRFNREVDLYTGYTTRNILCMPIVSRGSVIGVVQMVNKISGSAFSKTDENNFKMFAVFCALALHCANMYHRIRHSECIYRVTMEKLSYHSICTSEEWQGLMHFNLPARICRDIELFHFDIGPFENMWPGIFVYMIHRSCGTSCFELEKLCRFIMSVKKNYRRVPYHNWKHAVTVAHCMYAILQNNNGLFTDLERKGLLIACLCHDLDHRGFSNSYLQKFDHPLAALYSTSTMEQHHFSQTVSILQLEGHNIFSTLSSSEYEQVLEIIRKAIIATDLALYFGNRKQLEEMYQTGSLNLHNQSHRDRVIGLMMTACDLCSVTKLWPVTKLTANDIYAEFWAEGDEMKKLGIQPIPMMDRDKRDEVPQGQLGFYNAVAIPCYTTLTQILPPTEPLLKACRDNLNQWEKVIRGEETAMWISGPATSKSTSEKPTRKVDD
As to the kind of experiment: PDE10 occupancy ([3H]-MP-10, striatum). Type of test: in vivo. Particulars: rat; for ED50: dose response; for receptor occupancy at 10 mg/kg: single dose 10 mg/kg. The protocol: Dose-response or single dose experiments were performed to measure PDE10 occupancy 1 hour after subcutaneous (s.c.) or oral (p.o.) administration. Male Wistar rats (200 g) were treated by s.c. or p.o. administration of various PDE10 inhibitors. The PDE10 radioligand [^3H]-MP-10 (10 μCi/animal) was injected intravenously (i.v.) 30 minutes before sacrifice. Brains were immediately removed from the skull and rapidly frozen. Twenty μm-thick brain sections were cut using a cryostat-microtome, thaw-mounted on microscope slides and loaded in a β-imager to quantify PDE10 occupancy in the striatum.

Test [3] addresses T2, Rat recombinant PDE10A (rPDE10A2) (Rattus norvegicus, UniProt Q9QYJ6).
T2 construct: inferred from the Ni metal chelate purification; made in house; host or cells: Sf9 insect cells (baculovirus)
T2 sequence (Q9QYJ6 1-794): T1 sequence (Q9QYJ6 1-794)
Briefly: In vitro assay PDE10A (SPA, 3H-cAMP). Type of test: biochemical. The essentials: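 Scintillation proximity read-out (cpm) of 3H-cAMP hydrolysis after 60 min at room temperature, with enzyme-free blanks and 1% DMSO controls. Enzyme was Sf9-expressed, Ni-sepharose-purified rat rPDE10A2; substrate 60 nM cAMP with tracer, buffer Tris pH 7.8 containing MgCl2 and EGTA.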

For test [4], the target named is other members of the PDE family (Homo sapiens, UniProt O76083). Briefly: In vitro PDE selectivity assay (SPA), other members of the PDE family (protocols in Table A). Type of test: biochemical. Particulars: hPDE9A; read-out: PDE 9A (expressed as pIC50) (converted). The protocol:
as §1, §2

Test [5] addresses other members of the PDE family (Homo sapiens, UniProt Q9HCR9). The test is described as above. Type of test: biochemical. Particulars: hPDE11A4; read-out: PDE 11A4 (expressed as pIC50) (converted). As to the method: as §1, §2
Test [6] concerns the target other members of the PDE family (Homo sapiens, UniProt Q13946). Described as above. The settings on record: hPDE7A1; read-out: PDE 7A (expressed as pIC50) (converted). The format is biochemical. As to the method: as §1, §2
For test [7], the target named is other members of the PDE family (Homo sapiens, UniProt Q14432). The test is described as above. Type of test: biochemical. The settings on record: hPDE3A; read-out: PDE 3A (expressed as pIC50) (converted). As to the method:
as §1, §2

Another test addresses PDE4D3 (Homo sapiens, UniProt Q08499). As to the kind of experiment: In vitro PDE selectivity assay (SPA), PDE4D3. The format is biochemical. The settings on record: hPDE4D3; read-out: PDE 4D3 (expressed as pIC50) (converted). The protocol: as §1, §2
The target in another test is PDE5A3 (Homo sapiens, UniProt O76074). As to the kind of experiment: In vitro PDE selectivity assay (SPA), PDE5A3. Type of test: biochemical. The settings on record: hPDE5A3; read-out: PDE 5A3 (expressed as pIC50) (converted). The protocol:
as §1, §2

[8] abbreviates: dose at which 50% of the tested animals show the effect, ≧: active in 30% of the animals at the indicated dose, ≦: active in 60%.
The mark [9] stands for this setting: Table 4 in vitro selectivity, read-out: PDE 10A2 (expressed as pIC50) (converted).
Where [10] appears, read: pIC50 corresponds to the −log IC50 expressed in mol/L, read-out: PDE10A2 pIC50 (converted).
[11] abbreviates: sc, subcutaneous, read-out: SD sc % occupancy at 10 mg/kg.
[12] abbreviates: oral, read-out: SD po % occupancy at 10 mg/kg.
Where [13] appears, read: po, n.d.: found not active at threshold dose 2.5 mg/kg or 10 mg/kg (a), * not soluble, tested orally as a suspension.
The mark [14] stands for this setting: n.d.: found not active at threshold dose 2.5 mg/kg or 10 mg/kg (a), not further tested.

other members of the PDE family (Homo sapiens, UniProt Q13946), sequence (Q13946 whole entry): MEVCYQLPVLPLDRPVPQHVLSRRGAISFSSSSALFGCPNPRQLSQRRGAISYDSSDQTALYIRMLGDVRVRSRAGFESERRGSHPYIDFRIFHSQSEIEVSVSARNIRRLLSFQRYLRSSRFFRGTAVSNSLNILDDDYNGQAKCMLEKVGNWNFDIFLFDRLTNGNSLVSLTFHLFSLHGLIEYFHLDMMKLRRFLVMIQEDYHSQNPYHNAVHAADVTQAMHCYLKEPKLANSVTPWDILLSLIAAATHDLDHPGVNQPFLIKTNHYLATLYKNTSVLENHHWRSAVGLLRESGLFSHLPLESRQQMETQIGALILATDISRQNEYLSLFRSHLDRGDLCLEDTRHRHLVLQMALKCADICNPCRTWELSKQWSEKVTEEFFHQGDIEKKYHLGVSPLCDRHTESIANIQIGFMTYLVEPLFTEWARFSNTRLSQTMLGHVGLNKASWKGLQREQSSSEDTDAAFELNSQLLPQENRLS
other members of the PDE family (Homo sapiens, UniProt O76083), sequence (O76083 whole entry): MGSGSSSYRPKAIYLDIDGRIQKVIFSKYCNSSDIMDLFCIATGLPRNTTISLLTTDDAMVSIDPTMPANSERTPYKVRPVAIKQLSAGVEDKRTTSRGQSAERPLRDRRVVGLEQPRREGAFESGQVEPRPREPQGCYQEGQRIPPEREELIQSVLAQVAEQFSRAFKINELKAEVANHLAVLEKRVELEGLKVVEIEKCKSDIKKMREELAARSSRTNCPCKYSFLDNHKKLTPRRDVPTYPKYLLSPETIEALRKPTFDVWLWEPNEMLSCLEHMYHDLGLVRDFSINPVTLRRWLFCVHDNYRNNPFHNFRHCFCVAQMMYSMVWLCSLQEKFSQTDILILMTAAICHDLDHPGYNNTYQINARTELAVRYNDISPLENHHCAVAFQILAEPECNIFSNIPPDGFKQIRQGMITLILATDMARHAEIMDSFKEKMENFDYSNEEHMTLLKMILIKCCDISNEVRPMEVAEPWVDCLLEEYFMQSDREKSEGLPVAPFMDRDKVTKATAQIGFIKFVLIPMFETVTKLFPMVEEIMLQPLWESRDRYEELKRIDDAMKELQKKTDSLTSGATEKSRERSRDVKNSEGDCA
PDE4D3, sequence (Q08499 1-673 isoform Q08499-2): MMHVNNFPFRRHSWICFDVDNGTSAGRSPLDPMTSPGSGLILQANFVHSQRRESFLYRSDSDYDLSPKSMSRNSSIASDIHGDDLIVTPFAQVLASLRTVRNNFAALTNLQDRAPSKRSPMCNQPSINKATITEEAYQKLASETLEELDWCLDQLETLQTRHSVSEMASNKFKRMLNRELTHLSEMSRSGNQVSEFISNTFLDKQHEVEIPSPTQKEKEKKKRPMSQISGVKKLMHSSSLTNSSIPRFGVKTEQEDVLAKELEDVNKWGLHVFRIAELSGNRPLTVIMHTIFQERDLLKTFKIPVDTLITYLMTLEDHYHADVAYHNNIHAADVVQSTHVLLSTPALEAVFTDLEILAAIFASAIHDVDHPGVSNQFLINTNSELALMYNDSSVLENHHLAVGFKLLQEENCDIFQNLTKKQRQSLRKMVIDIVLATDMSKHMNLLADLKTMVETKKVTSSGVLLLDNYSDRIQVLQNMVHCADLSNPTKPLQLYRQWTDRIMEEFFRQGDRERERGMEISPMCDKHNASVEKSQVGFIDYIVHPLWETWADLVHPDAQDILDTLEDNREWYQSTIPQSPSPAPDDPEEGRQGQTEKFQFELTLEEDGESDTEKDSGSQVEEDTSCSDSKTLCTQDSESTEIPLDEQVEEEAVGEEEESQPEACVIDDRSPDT
other members of the PDE family (Homo sapiens, UniProt O00408), sequence (O00408 whole entry): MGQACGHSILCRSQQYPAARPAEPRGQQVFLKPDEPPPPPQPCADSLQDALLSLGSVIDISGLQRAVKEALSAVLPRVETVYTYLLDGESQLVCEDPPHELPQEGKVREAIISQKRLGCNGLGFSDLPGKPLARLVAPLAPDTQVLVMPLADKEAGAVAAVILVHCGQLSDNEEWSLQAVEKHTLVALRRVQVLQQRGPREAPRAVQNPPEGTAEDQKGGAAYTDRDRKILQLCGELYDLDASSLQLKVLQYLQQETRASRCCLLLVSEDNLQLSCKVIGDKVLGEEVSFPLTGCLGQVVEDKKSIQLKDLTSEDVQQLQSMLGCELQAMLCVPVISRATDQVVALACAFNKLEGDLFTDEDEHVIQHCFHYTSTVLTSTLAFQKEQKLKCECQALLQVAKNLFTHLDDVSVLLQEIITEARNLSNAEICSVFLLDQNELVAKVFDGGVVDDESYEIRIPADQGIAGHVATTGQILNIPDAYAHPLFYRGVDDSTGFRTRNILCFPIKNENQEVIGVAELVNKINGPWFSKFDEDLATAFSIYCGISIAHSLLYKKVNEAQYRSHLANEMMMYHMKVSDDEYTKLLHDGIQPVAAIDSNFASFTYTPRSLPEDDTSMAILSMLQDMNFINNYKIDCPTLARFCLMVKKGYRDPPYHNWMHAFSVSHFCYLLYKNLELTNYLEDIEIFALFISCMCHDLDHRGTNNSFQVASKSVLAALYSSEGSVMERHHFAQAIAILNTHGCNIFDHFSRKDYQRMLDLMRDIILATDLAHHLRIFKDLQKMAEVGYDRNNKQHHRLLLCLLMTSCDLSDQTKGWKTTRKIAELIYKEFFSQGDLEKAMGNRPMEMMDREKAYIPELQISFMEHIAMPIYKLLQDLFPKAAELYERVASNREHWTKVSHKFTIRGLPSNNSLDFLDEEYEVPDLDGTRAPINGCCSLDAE
other members of the PDE family (Homo sapiens, UniProt Q14432), sequence (Q14432 whole entry): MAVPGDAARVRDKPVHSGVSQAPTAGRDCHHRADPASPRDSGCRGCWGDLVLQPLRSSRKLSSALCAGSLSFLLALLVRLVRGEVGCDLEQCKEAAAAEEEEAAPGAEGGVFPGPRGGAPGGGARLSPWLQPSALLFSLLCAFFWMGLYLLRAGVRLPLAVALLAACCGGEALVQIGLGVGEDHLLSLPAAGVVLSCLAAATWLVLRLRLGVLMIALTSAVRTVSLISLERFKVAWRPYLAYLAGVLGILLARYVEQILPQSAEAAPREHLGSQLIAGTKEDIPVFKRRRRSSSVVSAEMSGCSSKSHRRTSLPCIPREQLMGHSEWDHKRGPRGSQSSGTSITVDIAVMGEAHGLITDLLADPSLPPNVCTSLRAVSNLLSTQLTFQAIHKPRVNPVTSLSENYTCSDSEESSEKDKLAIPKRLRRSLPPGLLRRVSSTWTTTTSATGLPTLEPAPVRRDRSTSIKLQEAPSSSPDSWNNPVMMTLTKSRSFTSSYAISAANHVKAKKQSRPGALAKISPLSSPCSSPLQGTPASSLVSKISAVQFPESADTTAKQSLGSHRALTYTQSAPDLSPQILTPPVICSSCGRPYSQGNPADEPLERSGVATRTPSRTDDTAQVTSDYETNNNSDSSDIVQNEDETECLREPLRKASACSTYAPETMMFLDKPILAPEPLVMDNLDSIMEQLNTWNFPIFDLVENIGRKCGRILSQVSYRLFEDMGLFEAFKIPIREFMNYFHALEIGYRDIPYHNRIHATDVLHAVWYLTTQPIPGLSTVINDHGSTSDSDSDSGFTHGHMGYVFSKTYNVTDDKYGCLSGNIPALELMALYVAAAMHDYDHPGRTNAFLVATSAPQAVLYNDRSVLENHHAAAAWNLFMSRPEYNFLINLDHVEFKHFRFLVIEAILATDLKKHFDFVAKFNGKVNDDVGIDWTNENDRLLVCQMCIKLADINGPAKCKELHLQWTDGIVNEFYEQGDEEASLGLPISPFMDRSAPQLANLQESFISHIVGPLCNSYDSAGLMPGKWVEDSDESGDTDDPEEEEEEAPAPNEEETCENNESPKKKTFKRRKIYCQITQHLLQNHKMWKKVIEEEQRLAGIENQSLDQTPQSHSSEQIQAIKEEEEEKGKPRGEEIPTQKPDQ
other members of the PDE family (Homo sapiens, UniProt Q9HCR9), sequence (Q9HCR9 whole entry): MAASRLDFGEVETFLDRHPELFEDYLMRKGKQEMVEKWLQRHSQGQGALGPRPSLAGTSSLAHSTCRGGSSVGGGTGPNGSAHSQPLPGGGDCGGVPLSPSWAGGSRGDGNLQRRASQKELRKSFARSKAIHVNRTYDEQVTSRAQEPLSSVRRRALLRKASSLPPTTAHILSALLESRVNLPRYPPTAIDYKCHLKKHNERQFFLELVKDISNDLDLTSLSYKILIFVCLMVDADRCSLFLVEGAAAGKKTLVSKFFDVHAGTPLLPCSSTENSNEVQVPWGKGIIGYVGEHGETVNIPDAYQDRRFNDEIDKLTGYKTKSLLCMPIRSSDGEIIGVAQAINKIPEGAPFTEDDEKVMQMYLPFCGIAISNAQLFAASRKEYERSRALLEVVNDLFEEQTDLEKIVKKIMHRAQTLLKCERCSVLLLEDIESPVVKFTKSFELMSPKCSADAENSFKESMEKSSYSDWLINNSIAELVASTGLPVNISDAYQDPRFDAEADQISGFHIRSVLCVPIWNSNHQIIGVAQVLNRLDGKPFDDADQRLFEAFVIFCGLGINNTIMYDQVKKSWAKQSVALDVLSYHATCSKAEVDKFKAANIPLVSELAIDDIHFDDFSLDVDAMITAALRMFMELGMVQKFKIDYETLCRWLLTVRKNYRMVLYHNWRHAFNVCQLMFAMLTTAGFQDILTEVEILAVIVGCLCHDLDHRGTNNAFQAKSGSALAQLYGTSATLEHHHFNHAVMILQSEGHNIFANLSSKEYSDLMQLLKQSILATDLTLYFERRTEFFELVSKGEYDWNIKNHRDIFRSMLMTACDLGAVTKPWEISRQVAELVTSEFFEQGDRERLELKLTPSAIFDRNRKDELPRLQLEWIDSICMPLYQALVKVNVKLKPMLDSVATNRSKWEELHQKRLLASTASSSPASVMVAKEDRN

`COC(C)(C)Cc1ccc(-c2c(C)nc3c(-c4ccncc4)ccnn23)cn1` [compound 7, 3-[6-(2-methoxy-2-methylpropyl)-3-pyridinyl-2-methyl-8-(4-pyridinyl)-imidazol-1,2-b]pyridazine]: the ED50 amounted to 0.3 mg/kg in [1] (setting [8]) and 1.6 mg/kg at PDE10 (sc, subcutaneous administration, read-out: PDE10 in vivo occupancy ED50 sc). The IC50 in test [2] is greater than 10000 nM; in test [3] (setting [9]), 25.7 nM; in [3] (setting [10]), 25.7 nM.

In turn, `COC(C)(C)COc1ccc(-c2c(C)nc3c(N4CCOCC4)ccnn23)cn1` [compound 18, 3-[6-(2-methoxy-2-methylpropoxy)-3-pyridinyl]-2-methyl-8-(4-morpholinyl)-imidazo[,2-b]pyridazine] displayed a 50% effective dose (ED50) in [1] (setting [8]) of 5 mg/kg. Besides, the IC50 in test [4] was greater than 10000 nM; in [5] it was greater than 10000 nM; in [6], greater than 10000 nM; in [7] it was greater than 10000 nM; in test [2] it was greater than 10000 nM; in test [3] (setting [9]) it was 170 nM. Moreover, the IC50 in test [3] (setting [10]) was 170 nM; at PDE4D3, greater than 10000 nM. For the same molecule, on PDE10 (setting [11]), the receptor occupancy at 10 mg/kg was 46%.

Turning to `COC(C)(C)Cc1ccc(-c2c(C)nc3c(-c4ccncc4)cc(C)nn23)cn1` [compound 48, 3-[6-(2-methoxy-2-methylpropyl)-3-pyridinyl]-2,6-dimethyl-8-(4-pyridinyl)-imidazo[1,2-b]pyridazine], the ED50 in [1] (setting [8]) is no less than 2.5 mg/kg; at PDE10 (oral administration, read-out: PDE10 in vivo occupancy ED50 po), 4.3 mg/kg. Further, the figures for the IC50 in test [2], in test [3] (setting [9]) and in [3] (setting [10]) were greater than 10000 nM, 115 nM and 115 nM, respectively.

As to `Cc1nc2c(N3CCOCC3)ccnn2c1-c1cnn(C2CCOCC2)c1` [compound 117, 2-methyl-8-(4-morpholinyl)-3-[1-(tetrahydro-2H-pyran-4-yl)-1H-pyrazol-4-yl]-imidazo[1,2-b]pyridazine], the IC50 in test [4] is greater than 10000 nM; in test [6] it was greater than 10000 nM; in [7], greater than 10000 nM; in test [2], greater than 10000 nM; at PDE5A3, greater than 10000 nM; in test [3] (setting [9]) it was 97.7 nM. Besides, the IC50 in [3] (setting [10]) is 97.7 nM; on PDE4D3, greater than 10000 nM.

The molecule `Cc1nc2c(N3CCOCC3)ccnn2c1-c1cnn(CC2CC2(F)F)c1` (centres unmarked) [compound 118] registered an ED50 in test [1] (po, * compound not soluble, tested orally as a suspension, ≧: active in 30% of the animals at the indicated dose, ≦: active in 60%) of no more than 10 mg/kg. The IC50 in test [4] was greater than 10000 nM; in [5], greater than 10000 nM; in [6] it was greater than 10000 nM; in [7], greater than 10000 nM; in test [2], greater than 10000 nM; in test [3] (setting [9]) it was 50.1 nM. In addition, the IC50 is 50.1 nM in test [3] (setting [10]) and greater than 10000 nM on PDE4D3. Also, the receptor occupancy at 10 mg/kg on PDE10 (setting [12]) is 4%.

In [1] (setting [13]), `COCCn1cc(-c2c(C)nc3c(N4CCOCC4)cc(C(F)(F)F)nn23)cn1` [compound 130, 3-[1-(2-methoxyethyl)-1H-pyrazol-4-yl]-2-methyl-8-(4-morpholinyl)-6-(trifluoromethyl)-imidazo[1,2-b]pyridazine] displayed an ED50 greater than 10 mg/kg. Also, on PDE10 (setting [12]), the receptor occupancy at 10 mg/kg is 6%. The IC50 in test [3] (setting [10]) was 219 nM.

`CCc1nc2c(-c3ccncc3)ccnn2c1-c1cnn(CCOC)c1` [compound 132, 2-ethyl-3-[1-(2-methoxyethyl)-1H-pyrazol-4-yl]-8-(4-pyridinyl)-imidazo[1,2-b]pyridazine] had an ED50 in test [1] (setting [14]) greater than 10 mg/kg. Also, the receptor occupancy at 10 mg/kg at PDE10 (setting [11]) was 44%. Further, the IC50 in test [3] (setting [10]) is 70.8 nM.

`Cc1nc2c(N3CCOCC3)ccnn2c1-c1cnn(CC(F)(F)F)c1` [compound 137, 2-methyl-8-(4-morpholinyl)-3-[1-(2,2,2-trifluoroethyl)-1H-pyrazol-4-yl]-imidazo[1,2-b]pyridazine] returned an ED50 in test [1] (setting [14]) greater than 2.5 mg/kg. Also, the receptor occupancy at 10 mg/kg on PDE10 (setting [12]) is 12%. In addition, in test [3] (setting [10]), the IC50 is 25.7 nM.

In test [1] (setting [13]), `FC(F)(F)Cn1cc(-c2c(C3CC3)nc3c(N4CCOCC4)ccnn23)cn1` [compound 138, 2-cyclopropyl-8-(4-morpholinyl)-3-[1-(2,2,2-trifluoroethyl)-1H-pyrazol-4-yl]-imidazo[1,2-b]pyridazine] registered an ED50 greater than 10 mg/kg. Moreover, the receptor occupancy at 10 mg/kg at PDE10 (setting [12]) was 11%. Also, the IC50 in test [3] (setting [10]) is 39.8 nM.

For `COCCn1cc(-c2c(OC)nc3c(N4CCOCC4)ccnn23)cn1` [compound 140, 2-methoxy-3-[1-(2-methoxyethyl)-1H-pyrazol-4-yl]-8-(4-morpholinyl)-imidazo[1,2-b]pyridazine], the ED50 in test [1] (setting [14]) is greater than 10 mg/kg. The receptor occupancy at 10 mg/kg at PDE10 (setting [12]) was 0%. Moreover, in [3] (setting [10]), the IC50 is 174 nM.

Usually ED50 stands for the midpoint of the dose-response relation.
